This note sets out measurements from US9539260B2, “Dihydro-benzo-oxazine and dihydro-pyrido-oxazine derivatives” (Novartis AG, priority 2012, dated 2017).

In one assay the target is PI3K alpha (Homo sapiens (Human), UniProt P42336). The assay is described as follows: Enzymatic PI3K alpha isoform inhibition (lipid kinase activity, Kinase-Glo luminescence). Type of assay: biochemical. Conditions: Enzymatic assay. Summed up:
(§1)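 IC50s derive from 4-parameter logistic fits of % inhibition across 8 concentrations (usually 10 to 0.003 μM). Lipid kinase reaction: PI3K (10 nM) plus phosphatidylinositol (5 μg/mL) started with 2 μM ATP, stopped near 50% ATP depletion; leftover ATP quantified by Kinase-Glo luminescence.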
Background: In Kinase-Glo more light means more ATP remaining.

The target of a further assay is PI3K delta (Homo sapiens (Human), UniProt O00329). The assay is described as follows: Enzymatic PI3K delta isoform inhibition (lipid kinase activity, Kinase-Glo luminescence). It is filed as biochemical. To be noted: Enzymatic assay. Summed up:
as §1

Assay [1] deals with myristoylated catalytic subunit of human PI3K delta in Rat-1 cells (Homo sapiens (Human), UniProt O00329). In words: PI3K-mediated Akt 1/2 (S473) phosphorylation in Rat-1 cells, PI3K delta. It is filed as cell-based. To be noted: Rat-1 cells overexpressing myristoylated human PI3K delta; p-Akt (S473) AlphaScreen SureFire; read-out: Cell PI3Kδ/ IC50. The protocol: 2.1 Phosphoinositide-3 Kinase (PI3K)-Mediated Akt 1/2 (S473) Phosphorylation in Rat-1 Cells
myristoylated catalytic subunit of human PI3K delta in Rat-1 cells, sequence (O00329 whole entry): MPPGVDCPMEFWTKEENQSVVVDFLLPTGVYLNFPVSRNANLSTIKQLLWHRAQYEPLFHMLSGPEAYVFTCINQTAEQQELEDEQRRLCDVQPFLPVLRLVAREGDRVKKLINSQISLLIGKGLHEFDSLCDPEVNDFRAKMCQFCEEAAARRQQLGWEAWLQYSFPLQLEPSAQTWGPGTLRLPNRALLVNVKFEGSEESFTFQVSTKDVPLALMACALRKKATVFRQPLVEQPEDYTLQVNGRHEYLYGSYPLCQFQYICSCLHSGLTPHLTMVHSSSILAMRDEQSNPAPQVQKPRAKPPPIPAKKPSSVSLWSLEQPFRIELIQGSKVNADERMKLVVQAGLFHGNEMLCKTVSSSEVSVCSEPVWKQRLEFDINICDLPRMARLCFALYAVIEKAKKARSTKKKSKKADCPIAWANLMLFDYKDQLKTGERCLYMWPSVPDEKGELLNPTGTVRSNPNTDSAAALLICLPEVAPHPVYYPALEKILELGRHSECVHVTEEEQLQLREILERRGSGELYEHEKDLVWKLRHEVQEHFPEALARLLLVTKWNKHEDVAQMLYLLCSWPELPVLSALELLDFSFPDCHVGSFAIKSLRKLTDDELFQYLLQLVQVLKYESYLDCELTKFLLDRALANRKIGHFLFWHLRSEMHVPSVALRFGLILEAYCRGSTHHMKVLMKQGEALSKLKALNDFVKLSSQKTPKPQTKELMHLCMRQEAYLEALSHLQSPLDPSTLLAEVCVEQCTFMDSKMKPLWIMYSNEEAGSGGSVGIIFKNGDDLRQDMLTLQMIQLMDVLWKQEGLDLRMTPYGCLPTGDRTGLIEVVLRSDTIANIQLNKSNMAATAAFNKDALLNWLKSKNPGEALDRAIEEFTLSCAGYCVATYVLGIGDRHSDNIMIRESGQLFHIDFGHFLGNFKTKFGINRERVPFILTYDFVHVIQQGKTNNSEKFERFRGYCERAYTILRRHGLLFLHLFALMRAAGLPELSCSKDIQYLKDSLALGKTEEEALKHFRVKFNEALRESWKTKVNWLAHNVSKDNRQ
Rat-1 cells stably overexpressing a myristoylated form of the catalytic subunit of human phosphoinositide-3 kinase (PI3K) alpha, beta or delta were plated in 384-well plates at a density of 7500 (PI3K alpha), 6200 (PI3K beta), or 4000 (PI3K delta) cells in 30 ul complete growth medium (Dulbecco's modified Eagle's medium (DMEM high glucose) supplemented with 10% (v/v) fetal bovine serum, 1% (v/v) MEM non essential amino acids, 10 mM HEPES, 2 mM L-glutamine, 10 μg/mL puromycin and 1% (v/v) Penicillin/Streptomycin) and were incubated at […]/5% CO2/95% humidity for 24 h. Compounds were diluted in 384-well compound plates to obtain 8-point serial dilutions for 40 test compounds in 90% DMSO, as well as 4 reference compounds plus 16 high controls and 16 low (inhibited) controls. Predilution plates were prepared by dispensing pipetting 250 nl of compound solutions into 384-well polypropylen plates using a Hummingwell nanoliter dispensor. Compounds were prediluted by the addition of 49.75 ul complete growth medium. 10 ul of prediluted compound solution were transferred to the cell plate using a 384-well pipettor, resulting in a final DMSO concentration of 0.11%.
Cells were incubated for 1 h at […]/5% CO2/95% humidity. The supernatant was removed, the cells were lysed in 20 ul of lysis buffer for AlphaScreen® SureFire® detection.
For detection of p-AKT(Ser473), the SureFire® p-Akt 1/2 (Ser473) Assay Kit (PerkinElmer, U.S.A) was used. 5 ul of cell lysate was transferred to 384-well low volume Proxiplates for detection using a 384-well pipettor. Addition of AlphaScreen® SureFire® reagents was done according to the manufacturer's protocol. First, 5 ul of reaction buffer plus activation buffer mix containing AlphaScreen® acceptor beads was added, the plate was sealed, and incubated on a plate shaker for 2 hours at room temperature. Second, 2 ul of dilution buffer containing AlphaScreen® donor beads was added, and the plate was incubated on plate shaker as above for a further 2 hours. The plate was read on an AlphaScreen® compatible plate reader, using standard AlphaScreen® settings.
(In general: Bead proximity is the source of the signal in Alpha formats.)

For assay [2], the system named is rat B cells derived from whole blood. The assay is described as follows: Determination of rat B cell activation in whole blood (CD86 upregulation after anti-IgM and rIL-4). To be noted: anti-IgM + rIL-4 stimulation, CD86 on CD45RA+ B cells, read-out: RWB/IC50 CD86. Type of assay: cell-based. The protocol: 2.3 Determination of Rat B Cell Activation
PI3Kδ has been recognized to modulate B cell function when cells are stimulated through the B cell receptor (BCR) (Okkenhaug et al. Science 297:1031 (2002). For assessing the inhibitory property of compounds on B cell activation, the upregulation of activation markers CD86 on rat B cells derived from whole blood is measured after stimulation with anti-IgM and recombinant IL-4. The CD86 molecule (also known as B7-2) is primarily expressed on antigen-presenting cells, including B cells. Resting B cells express CD86 at low levels, but upregulate it following stimulation of e.g. the BCR or IL-4 receptor. CD86 on a B cell interacts with CD28 on T cells. This interaction is required for optimal T cell activation and for the generation of an optimal IgG1 response (Carreno et al. Annu Rev Immunol. 20:29 (2002)).
Whole blood was collected from the abdominal aorta adult male Lewis rats (LEW/HanHsd) oby using a 10 ml syringe with hypodermic needle pre-coated with sodium heparin. Blood was transferred into 50 ml Falcon tubes and the anticoagulant concentration was adjusted to 100 U/ml.
For assessment of the in vitro effects of immunosuppressive drugs, heparinized blood was prediluted to 50% with medium. As medium served DMEM high glucose (Animed cat#1-26F01-I) supplemented with 100 U/ml penicillin, […], 2 mM L-glutamin, 50 mg/ml dextran 40 and 5% fetal calf serum (FCS, Fetaclone I, Gibco #10270-106). Then, 190 μl prediluted blood was spiked with 10 μl of pre-diluted test compound in 96 well U-bottomed microtiter plates (Nunc) resulting in a 3-fold serial dilution with a concentration range from 20 to 0.0003 μM. Control wells were pretreated with DMSO to obtain a final concentration of 0.5% DMSO. Cultures were set up in duplicates, mixed well by agitation on a plate shaker (Heidolph Titramax 101; 30 sec, speed 900), pipetting up and down and agitated on the plate shaker again. Cultures were incubated at 37° C., 5% CO2 for 1 hr. Then, 20 μl of polyclonal goat anti-rat IgM Ab (Serotec, cat#302001) and 10 μl of diluted recombinant rIL-4 (Immunotools #340085) were added to obtain final concentrations of 30 μg/ml and 5 ng/ml, respectively. Plates were mixed by agitation on a plate shaker as above and incubated for 24 hrs at 37° C., 5% CO2.
After incubation, 15 μl of a 25 mM EDTA solution was added per well and shaken for 15 min to detach adherent cells. For analysis of surface activation markers, samples were then stained with PE-Cy5-labeled anti-ratCD45RA (BD cat#557015) to allow gating on B cells in FACS analysis. In addition, samples were stained with PE-labeled anti-rat CD86 (BD cat#551396). All staining procedures were performed at rt for 30 min in the dark. After incubation, samples were transferred to 96-deep well V-bottomed microtiter plates (Corning #396096) containing 2 ml/well of BD Lysing Solution (BD #349202). After lysis of erythrocytes samples were washed with 2 ml of CellWASH (BD #349524). Data was acquired on an LSRII or FACScalibur flow cytometer (BD Biosciences) using Cellquest Plus or DIVA (version 6.1.1) software, respectively. Lymphocytes were gated in the FSC/SSC dot blot according to size and granularity and further analyzed for expression of CD45RA and activation markers. Data were calculated from dot blots or histograms as percentage of cells positively stained for activation markers within the CD45RA+ population.
The percentage inhibition of B cell activation after exposure to drug was calculated by the following formula: […]
ORIGIN 7 software (OriginLab Corporation, Northampton, Mass.) was used for non-linear regression curve fitting.

PI3K delta, sequence (O00329 other isoform, or with tags, fused parts or gaps linker GGGGGG): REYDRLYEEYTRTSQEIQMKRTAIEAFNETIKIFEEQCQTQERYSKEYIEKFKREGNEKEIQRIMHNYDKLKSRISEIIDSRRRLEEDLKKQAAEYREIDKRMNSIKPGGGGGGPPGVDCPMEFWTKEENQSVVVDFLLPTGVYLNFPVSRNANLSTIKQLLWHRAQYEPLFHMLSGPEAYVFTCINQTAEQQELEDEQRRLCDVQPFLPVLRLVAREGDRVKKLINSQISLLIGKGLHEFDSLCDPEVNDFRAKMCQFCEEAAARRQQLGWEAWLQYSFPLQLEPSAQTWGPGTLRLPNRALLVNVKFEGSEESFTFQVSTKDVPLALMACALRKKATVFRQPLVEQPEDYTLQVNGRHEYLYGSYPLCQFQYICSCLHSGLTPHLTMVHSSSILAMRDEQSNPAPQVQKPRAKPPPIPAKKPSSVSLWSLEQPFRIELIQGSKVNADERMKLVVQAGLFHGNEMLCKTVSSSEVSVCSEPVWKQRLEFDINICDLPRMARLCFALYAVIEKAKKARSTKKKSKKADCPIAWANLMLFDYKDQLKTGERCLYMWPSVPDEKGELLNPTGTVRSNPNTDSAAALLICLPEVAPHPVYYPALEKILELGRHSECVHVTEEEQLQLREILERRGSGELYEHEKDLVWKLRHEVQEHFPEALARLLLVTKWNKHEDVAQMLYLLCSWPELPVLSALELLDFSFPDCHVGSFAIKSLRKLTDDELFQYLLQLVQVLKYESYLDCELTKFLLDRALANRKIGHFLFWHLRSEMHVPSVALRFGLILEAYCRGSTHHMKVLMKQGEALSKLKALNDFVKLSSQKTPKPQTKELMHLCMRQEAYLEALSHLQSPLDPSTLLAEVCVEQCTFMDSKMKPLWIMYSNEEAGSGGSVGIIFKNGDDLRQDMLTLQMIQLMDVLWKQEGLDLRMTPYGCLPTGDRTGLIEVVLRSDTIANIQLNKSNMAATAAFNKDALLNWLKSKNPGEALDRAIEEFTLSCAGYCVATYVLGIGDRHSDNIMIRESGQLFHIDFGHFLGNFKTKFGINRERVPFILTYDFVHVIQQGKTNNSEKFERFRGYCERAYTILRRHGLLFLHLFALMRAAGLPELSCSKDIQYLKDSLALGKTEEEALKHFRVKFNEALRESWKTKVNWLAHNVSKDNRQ
PI3K alpha, sequence (P42336 other isoform, or with tags, fused parts or gaps): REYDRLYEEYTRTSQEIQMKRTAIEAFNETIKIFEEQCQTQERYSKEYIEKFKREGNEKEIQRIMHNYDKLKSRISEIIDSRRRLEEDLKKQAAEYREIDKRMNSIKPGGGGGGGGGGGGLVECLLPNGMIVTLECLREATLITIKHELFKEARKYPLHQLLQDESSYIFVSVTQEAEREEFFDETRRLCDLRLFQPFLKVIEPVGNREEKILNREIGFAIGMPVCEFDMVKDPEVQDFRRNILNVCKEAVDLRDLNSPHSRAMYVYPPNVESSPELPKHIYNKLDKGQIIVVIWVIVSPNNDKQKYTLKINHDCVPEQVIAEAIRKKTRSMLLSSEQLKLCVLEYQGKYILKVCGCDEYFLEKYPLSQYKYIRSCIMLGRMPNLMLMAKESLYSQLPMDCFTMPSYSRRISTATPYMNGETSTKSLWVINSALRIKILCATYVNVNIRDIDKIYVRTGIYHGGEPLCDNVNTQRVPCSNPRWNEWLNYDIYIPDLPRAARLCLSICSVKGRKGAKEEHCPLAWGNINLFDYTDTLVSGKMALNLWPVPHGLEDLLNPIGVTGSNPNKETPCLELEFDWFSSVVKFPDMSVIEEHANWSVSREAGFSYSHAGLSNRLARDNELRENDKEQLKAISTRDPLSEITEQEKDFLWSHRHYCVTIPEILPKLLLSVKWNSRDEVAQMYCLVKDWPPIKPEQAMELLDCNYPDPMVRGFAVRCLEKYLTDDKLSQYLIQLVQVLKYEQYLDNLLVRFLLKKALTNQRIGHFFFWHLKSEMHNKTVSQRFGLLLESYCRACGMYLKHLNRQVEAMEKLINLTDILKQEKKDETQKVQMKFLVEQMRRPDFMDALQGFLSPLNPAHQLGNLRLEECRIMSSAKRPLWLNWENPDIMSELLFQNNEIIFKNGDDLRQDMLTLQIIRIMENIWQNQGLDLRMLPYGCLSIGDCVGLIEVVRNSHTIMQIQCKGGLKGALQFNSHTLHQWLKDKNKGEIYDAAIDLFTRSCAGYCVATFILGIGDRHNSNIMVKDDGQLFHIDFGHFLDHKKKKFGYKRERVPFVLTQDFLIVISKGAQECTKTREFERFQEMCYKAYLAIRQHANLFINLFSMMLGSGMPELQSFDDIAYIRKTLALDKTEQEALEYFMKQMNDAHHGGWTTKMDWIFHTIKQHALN

Consider `Cc1cc(N2CCOc3ccc(O[C@H]4CCN(C(=O)C5CCOCC5)C4)cc32)cnc1S(C)(=O)=O` [Example B1, {(S)-3-[4-(6-Methanesulfonyl-5-methyl-pyridin-3-yl)-3,4-dihydro-2H-benzo[1,4]oxazin-6-yloxy]-pyrrolidin-1-yl}-(tetrahydro-pyran-4-yl)-methanone], for which the IC50 against PI3K alpha was 390 nM; on PI3K delta, 14 nM; in assay [1] it was 154 nM; in assay [2], 29 nM.

`COc1ncc(N2CCOc3cnc(O[C@H]4CCN(C(=O)C5CCOCC5)C4)cc32)cc1C` [Example E3, {(S)-3-[1-(6-Methoxy-5-methyl-pyridin-3-yl]-2,3-dihydro-1H-pyrido[3,4-b][1,4]oxazin-7-yloxy]-pyrrolidin-1-yl}-(tetrahydro-pyran-4-yl)-methanone]: the IC50 on PI3K alpha is 494 nM; against PI3K delta, below 3 nM; in assay [1] it was 18 nM; in assay [2] it was 14 nM.

For the molecule `COc1ncc(N2CCOc3cnc(O[C@H]4CCN(C(=O)C5CCS(=O)(=O)CC5)C4)cc32)cc1C(F)F` [Example F7, {(S)-3-[1-(5-Difluoromethyl-6-methoxy-pyridin-3-yl)-2,3-dihydro-1H-pyrido[3,4-b][1,4]oxazin-7-yloxy]-pyrrolidin-1-yl}-(1,1-dioxo-hexahydro-1lambda*6*-thiopyran-4-yl)-methanone], the IC50 at PI3K alpha was 71 nM; against PI3K delta it was below 3 nM; in assay [1], 18 nM; in assay [2] it was 40 nM.

Take `COc1ncc(N2CCOc3ccc(O[C@H]4CCN(C(=O)c5cn(C)cn5)C4)cc32)cc1C#N` [Example D1, (S)-2-methoxy-5-(6-((1-(1-methyl-1H-imidazole-4-carbonyl)pyrrolidin-3-yl)oxy)-2H-benzo[b][1,4]oxazin-4(3H)-yl)nicotinonitrile]: the IC50 on PI3K delta was determined as 5 nM; in assay [1] it was 147 nM; in assay [2], 84 nM.

As for `COc1ncc(N2CCOc3ccc(O[C@H]4CCN(C(=O)C5CCOCC5)C4)cc32)cc1C` [Example A1, (S)-(3-((4-(6-methoxy-5-methylpyridin-3-yl)-3,4-dihydro-2H-benzo[b][1,4]oxazin-6-yl)oxy)pyrrolidin-1-yl)(tetrahydro-2H-pyran-4-yl)methanone], the IC50 against PI3K alpha was found to be 322 nM; against PI3K delta it was 6 nM; in assay [1], 43 nM; in assay [2], 37 nM.

On to `COc1ncc(N2CCOc3ccc(O[C@H]4CCN(C(=O)C5CCOCC5)C4)cc32)cc1C#N` [Example C1, 2-Methoxy-5-{6-[(S)-1-(tetrahydro-pyran-4-carbonyl)-pyrrolidin-3-yloxy]-2,3-dihydro-benzo[1,4]oxazin-4-yl}-nicotinonitrile], for which the IC50 against PI3K alpha is 300 nM; against PI3K delta it was 19 nM; in assay [1], 81 nM; in assay [2], 68 nM.

For the molecule `COc1ncc(N2CCOc3cnc(O[C@H]4CCN(C(=O)c5cn(C)cn5)C4)cc32)cc1C` [Example E1, {(S)-3-[1-(6-Methoxy-5-methyl-pyridin-3-yl)-2,3-dihydro-1H-pyrido[3,4-b][1,4]oxazin-7-yloxy]-pyrrolidin-1-yl}-(1-methyl-1H-imidazol-4-yl)-methanone], the IC50 against PI3K alpha amounted to 98 nM; against PI3K delta, 4 nM; in assay [1] it was 7 nM; in assay [2], 78 nM.

For `[2H]C1([2H])COc2ccc(O[C@H]3CCN(C(=O)C4CCOCC4)C3)cc2N1c1cnc(OC)c(C)c1` (single isomer, unassigned) [Q], the IC50 against PI3K alpha was determined as 1140 nM; against PI3K delta, 14 nM; in assay [1], 145 nM; in assay [2], 37 nM.
